According to patent publication US8791132B2, “Compounds and methods for treatment of hypertension” (Medivation Technologies, Inc., priority 2011, dated 2014):

Legend:
[1] = biological target: T1, human recombinant adrenergic α1D receptor (Homo sapiens, UniProt P25100); assay: Radioligand binding, adrenergic α1D ([3H]Prazosin); conditions: 0.1 μM compound; read-out: Percentage inhibition of ligand binding, Adrenergic α1D
T1 construct: expressed in transfected cells; host or cells: HEK-293
T1 sequence (P25100 1-572): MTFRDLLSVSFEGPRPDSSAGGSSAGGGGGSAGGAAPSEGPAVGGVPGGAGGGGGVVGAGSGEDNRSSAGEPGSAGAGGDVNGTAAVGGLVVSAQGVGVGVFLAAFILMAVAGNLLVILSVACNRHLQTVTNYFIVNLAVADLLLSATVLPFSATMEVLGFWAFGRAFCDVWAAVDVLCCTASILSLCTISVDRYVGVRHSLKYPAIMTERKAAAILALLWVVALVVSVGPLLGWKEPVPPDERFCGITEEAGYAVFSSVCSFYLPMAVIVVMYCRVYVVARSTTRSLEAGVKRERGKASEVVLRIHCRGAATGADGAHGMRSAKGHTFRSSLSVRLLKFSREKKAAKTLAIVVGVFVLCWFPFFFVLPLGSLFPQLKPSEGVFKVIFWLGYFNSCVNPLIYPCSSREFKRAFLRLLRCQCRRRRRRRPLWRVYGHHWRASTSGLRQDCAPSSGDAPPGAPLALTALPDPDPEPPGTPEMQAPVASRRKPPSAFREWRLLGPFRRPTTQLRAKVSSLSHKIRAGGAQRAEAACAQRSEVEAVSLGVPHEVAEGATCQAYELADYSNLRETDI
Description: Compounds were incubated with 0.6 nM [3H]Prazosin for 60 min at 25° C. Non-specific binding was estimated in the presence of 10 μM phentolamine. Receptor proteins were filtered and washed, the filters were then counted to determine [3H]Prazosin specifically bound. […] Biochemical assay results are presented as the percent inhibition of specific binding in Table B1.

[2] = biological target: T2, rat adrenergic α1B receptor (Rattus norvegicus, UniProt P15823); assay: Radioligand binding, adrenergic α1B ([3H]Prazosin); conditions: 0.1 μM compound; read-out: Percentage inhibition of ligand binding, Adrenergic α1B
T2 construct: rat adrenergic α1B receptor obtained from Wistar Rat liver; from tissue; host or cells: Wistar rat liver
T2 sequence (P15823 1-515): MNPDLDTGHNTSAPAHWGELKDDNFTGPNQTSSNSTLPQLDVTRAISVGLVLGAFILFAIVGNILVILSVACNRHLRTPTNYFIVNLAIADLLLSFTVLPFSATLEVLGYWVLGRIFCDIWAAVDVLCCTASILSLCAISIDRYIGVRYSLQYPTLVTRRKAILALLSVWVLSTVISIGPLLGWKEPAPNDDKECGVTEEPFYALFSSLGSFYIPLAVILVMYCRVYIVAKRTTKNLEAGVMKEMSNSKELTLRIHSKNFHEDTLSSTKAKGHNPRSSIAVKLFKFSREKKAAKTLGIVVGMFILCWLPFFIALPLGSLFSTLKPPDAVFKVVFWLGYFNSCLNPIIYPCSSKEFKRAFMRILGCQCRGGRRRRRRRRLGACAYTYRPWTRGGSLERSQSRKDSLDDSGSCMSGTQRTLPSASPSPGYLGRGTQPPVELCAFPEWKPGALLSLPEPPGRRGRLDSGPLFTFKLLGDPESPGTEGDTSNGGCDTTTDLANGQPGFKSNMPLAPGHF
Method in brief: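 Filter binding with Wistar rat liver α1B preparation: test compound plus 0.25 nM [3H]prazosin, 1 h at 25° C in modified Tris-HCl buffer pH 7.4.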

[3] = biological target: T3, human recombinant adrenergic α2B receptor (Homo sapiens, UniProt P18089); assay: Radioligand binding, adrenergic α2B ([3H]Rauwolscine); conditions: 0.1 μM compound; read-out: Percentage inhibition of ligand binding, Adrenergic α2B
T3 construct: expressed in transfected cells; host or cells: CHO-K1
T3 sequence (P18089 1-450): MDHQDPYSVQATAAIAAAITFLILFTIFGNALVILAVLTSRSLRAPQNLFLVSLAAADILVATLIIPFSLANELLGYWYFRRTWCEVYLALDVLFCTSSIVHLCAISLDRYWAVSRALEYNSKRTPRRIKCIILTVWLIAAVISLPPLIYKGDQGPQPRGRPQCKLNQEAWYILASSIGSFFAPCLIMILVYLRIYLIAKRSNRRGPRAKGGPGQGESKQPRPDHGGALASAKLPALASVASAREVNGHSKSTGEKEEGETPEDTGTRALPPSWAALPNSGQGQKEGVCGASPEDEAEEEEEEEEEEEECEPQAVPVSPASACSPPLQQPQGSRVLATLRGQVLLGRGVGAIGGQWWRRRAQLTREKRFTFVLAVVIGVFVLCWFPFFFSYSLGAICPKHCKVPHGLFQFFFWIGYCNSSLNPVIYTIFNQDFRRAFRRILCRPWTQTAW
Method in brief: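 Values are percent inhibition of specific radioligand binding. The receptor, expressed in CHO-K1 cells, was exposed to 2.5 nM [3H]Rauwolscine at 25° C for 60 min, with 10 μM Prazosin marking non-specific binding.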

[4] = biological target: T4, human recombinant adrenergic α2A receptor (Homo sapiens, UniProt P08913); assay: Radioligand binding, adrenergic α2A ([3H]MK-912); conditions: 0.1 μM compound; read-out: Percentage inhibition of ligand binding, Adrenergic α2A
T4 construct: expressed in transfected cells; host or cells: insect Sf9 cells
T4 sequence (P08913 1-465): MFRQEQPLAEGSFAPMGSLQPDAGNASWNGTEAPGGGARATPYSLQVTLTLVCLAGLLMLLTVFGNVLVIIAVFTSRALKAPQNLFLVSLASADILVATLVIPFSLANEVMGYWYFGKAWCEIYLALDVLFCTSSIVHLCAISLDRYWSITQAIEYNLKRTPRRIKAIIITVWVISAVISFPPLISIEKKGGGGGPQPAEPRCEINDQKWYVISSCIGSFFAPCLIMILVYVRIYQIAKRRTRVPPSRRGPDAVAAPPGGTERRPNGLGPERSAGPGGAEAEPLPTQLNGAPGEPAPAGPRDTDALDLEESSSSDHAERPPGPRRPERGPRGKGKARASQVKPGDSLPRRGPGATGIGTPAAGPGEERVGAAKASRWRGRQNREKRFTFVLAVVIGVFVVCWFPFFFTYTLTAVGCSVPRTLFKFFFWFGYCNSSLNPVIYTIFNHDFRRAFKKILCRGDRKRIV
Method in brief: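 In 50 mM Tris-HCl (pH 7.4) containing 12.5 mM MgCl2 and 2 mM EDTA, Sf9-expressed receptor was exposed to test compound plus 1 nM [3H]MK-912 at 25 °C for 60 min. Specific binding, corrected using 10 μM WB-4101, was quantified by filtration and counting and expressed as percent inhibition.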

Row | Structure (SMILES) | inhibition at 0.1 µM [1] [%] | inhibition at 0.1 µM [2] [%] | inhibition at 0.1 µM [3] [%] | inhibition at 0.1 µM [4] [%]
1 | Cc1ccc2c(c1)c1c(n2C2=C(c3ccc(F)cc3)CCC2)CCN(C)C1 [compound 301, 5-(2-(4-fluorophenyl)cyclopent-1-enyl)-2,8-dimethyl-2,3,4,5-tetrahydro-1H-pyrido[4,3-b]indole] | 36 | 29 | 84 | 87
2 | Cc1csc(C2=C(n3c4c(c5cc(C)ccc53)CN(C)CC4)CCC2)c1 [compound 304, 2,8-dimethyl-5-(2-(4-methylthiophen-2-yl)cyclopent-1-enyl)-2,3,4,5-tetrahydro-1H-pyrido[4,3-b]indole] | 27 | 15 | 81 | 79
3 | Cc1ccc2c(c1)c1c(n2C#Cc2cccc3cnccc23)CCN(C)C1 [compound 313, 5-isoquinolin-5-ylethynyl-2,8-dimethyl-2,3,4,5-tetrahydro-1H-pyrido[4,3-b]indole] | 53 | 92 | 73 | 73
4 | Cc1ccc2c(c1)c1c(n2CCc2ccc(C)nc2)C(c2ccccc2)N(C)CC1 (stereo not drawn) [compound 314] | 71 | 92 | 50 | 91
5 | Cc1ccc(CCn2c3c(c4ccc(Cl)cc42)CN(C)CC3)cn1 [compound 315] | 3 | 4 | 48 | 59
6 | Cc1ccc2c(c1)c1c(n2/C=C/c2cccc3cnccc23)CCN(C)C1 [compound 316, 5-(2-isoquinolin-5-yl-vinyl)-2,8-dimethyl-2,3,4,5-tetrahydro-1H-pyrido[4,3-b]indole] | 81 | 93 | 45 | 90
7 | Cc1ccc2c(c1)c1c(n2CCc2cccc3c2CCNC3)CCN(C)C1 [compound 317, 2,8-dimethyl-5-[2-(1,2,3,4-tetrahydro-isoquinolin-5-yl)-ethyl]-2,3,4,5-tetrahydro-1H-pyrido[4,3-b]indole] | 71 | 89 | 7 | 61
8 | Cc1ccc(CCn2c3c(c4c(Cl)c(Cl)ccc42)CN(C)CC3)cn1 [compound 319] | 8 | 13 | 4 | 63

Next, values leading:

Row | inhibition at 0.1 µM [1] [%] | inhibition at 0.1 µM [2] [%] | inhibition at 0.1 µM [3] [%] | inhibition at 0.1 µM [4] [%] | Structure (SMILES)
9 | 17 | 23 | 35 | 81 | Cc1ccc2c(c1)c1c(n2C2=C(c3sccc3C)CCC2)CCN(C)C1 [compound 302, 2,8-dimethyl-5-(2-(3-methylthiophen-2-yl)cyclopent-1-enyl)-2,3,4,5-tetrahydro-1H-pyrido[4,3-b]indole]
10 | 51 | 16 | 71 | 62 | Cc1ccc2c(c1)c1c(n2C2=C(c3cnc(N(C)C)nc3)CCC2)CCN(C)C1 [compound 303, 5-(2-(2,8-dimethyl-3,4-dihydro-1H-pyrido[4,3-b]indol-5(2H)-yl)cyclopent-1-enyl)-N,N-dimethylpyrimidin-2-amine]
11 | 41 | 20 | 79 | 93 | Cc1ccc2c(c1)c1c(n2C2=C(c3cc4ccccc4s3)CCC2)CCN(C)C1 [compound 305, 5-(2-(benzo[b]thiophen-2-yl)cyclopent-1-enyl)-2,8-dimethyl-2,3,4,5-tetrahydro-1H-pyrido[4,3-b]indole]
12 | 12 | 18 | 14 | 78 | Cc1ccc2c(c1)c1c(n2C2=C(c3cccc4ccccc34)CCC2)CCN(C)C1 [compound 306, 2,8-dimethyl-5-(2-(naphthalen-1-yl)cyclopent-1-enyl)-2,3,4,5-tetrahydro-1H-pyrido[4,3-b]indole]
13 | 40 | 23 | 37 | 57 | Cc1ccc2c(c1)c1c(n2C2=C(c3ccnn3C)CCC2)CCN(C)C1 [compound 309, 2,8-dimethyl-5-(2-(1-methyl-1H-pyrazol-5-yl)cyclopent-1-enyl)-2,3,4,5-tetrahydro-1H-pyrido[4,3-b]indole]
14 | 47 | 63 | 87 | 69 | C/C(=C\n1c2c(c3cc(C)cc(C)c31)CN(C)CC2)c1cccc(S(C)(=O)=O)c1 [compound 310]
15 | 79 | 87 | 97 | 91 | C/C(=C\n1c2c(c3cc(C)ccc31)CN(C)CC2)c1ccc2cnccc2c1 [compound 311]
16 | 50 | 71 | 93 | 56 | C/C(=C\n1c2c(c3cc(C)cc(C)c31)CN(C)CC2)c1ccncc1 [compound 312]
17 | 60 | 94 | 103 | 95 | Cc1ccc2c(c1)c1c(n2CCc2cscc2C)CCN(C)C1 [compound 318, 2,8-dimethyl-5-[2-(4-methyl-thiophen-3-yl)-ethyl]-2,3,4,5-tetrahydro-1H-pyrido[4,3-b]indole]
18 | 56 | 61 | 18 | 66 | Cc1ccc2c(c1)c1c(n2CCc2cnc3ccccc3c2)CCN(C)C1 [compound 320]
